This is an account of results in publication PMC4632086, “Effects and possible mechanisms of action of acacetin on the behavior and eye morphology of Drosophila models of Alzheimer’s disease” (Scientific Reports, 2015).

Like-named read-outs stand apart in the source and are kept apart here.

For test [1], the system named is human BACE-1. Particulars: cited from earlier work.
Test [2] concerns the target T1, recombinant human BACE-1 (Homo sapiens, UniProt P56817).
T1 construct: purchased R&D Systems (Minneapolis, MN, USA)
As to the kind of experiment: FRET-based enzyme assay, BACE-1 inhibition. Type of test: biochemical. Particulars: for IC50: pH 4.5, 1 h at 25 °C; for Slope ± SE: slope of concentration-inhibition fit.

Test [3] concerns transgenic Drosophila AD models. Also on record: method as in PMID 22348084. Particulars: five different transgenic Drosophila AD models; cited from earlier work.

T1 sequence (P56817 46-501): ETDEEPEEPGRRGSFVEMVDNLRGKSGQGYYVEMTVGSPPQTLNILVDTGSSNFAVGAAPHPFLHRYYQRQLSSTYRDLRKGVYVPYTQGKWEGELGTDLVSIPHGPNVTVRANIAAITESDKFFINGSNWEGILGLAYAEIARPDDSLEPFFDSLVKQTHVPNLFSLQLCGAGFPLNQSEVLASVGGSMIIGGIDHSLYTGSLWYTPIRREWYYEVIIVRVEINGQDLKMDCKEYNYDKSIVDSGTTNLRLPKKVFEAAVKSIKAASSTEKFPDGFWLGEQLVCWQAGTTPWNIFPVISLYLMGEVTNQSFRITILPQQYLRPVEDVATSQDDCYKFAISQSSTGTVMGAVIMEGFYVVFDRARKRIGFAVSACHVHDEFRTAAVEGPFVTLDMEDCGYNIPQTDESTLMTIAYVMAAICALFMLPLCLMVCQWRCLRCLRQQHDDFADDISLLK

Broadly, the IC50 is the concentration that inhibits the measured activity by half. `O=C1O[C@H]2[C@@H]3OC(=O)c4cc(O)c(O)c(O)c4-c4c(cc(O)c(O)c4O)C(=O)OC[C@H]2O[C@@H](OC(=O)c2cc(O)c(O)c(O)c2)[C@@H]3OC(=O)c2cc(O)c(O)c3c2[C@@H]2C1=CC(=O)[C@](O)(O3)C2(O)O` [geraniin]: the IC50 in test [1] (tannins) was 4 µM.

For `CC1(C)CC[C@]2(C(=O)O)CC[C@]3(C)C(=CC[C@@H]4[C@@]5(C)C[C@@H](O)[C@H](O)C(C)(C)[C@@H]5CC[C@]43C)[C@@H]2C1` [Maslinic acid, maslinic acid], the IC50 in test [2] (IC50, μM (95% CL)) was determined as 488 µM. Further, in test [2], the “Slope ± SE” value was 1.4 ± 0.09.

With `COc1cc(C)c2c(=O)cc(C[C@@H](C)O)oc2c1[C@@H]1O[C@H](CO)[C@@H](O)[C@H](O)[C@H]1OC(=O)/C=C/c1ccc(O)cc1` [aloeresin D], the IC50 in test [1] (benzopyranoids) is 39 µM.

Regarding `CC1(C)CC[C@]2(C(=O)O)CC[C@]3(C)C(=CC[C@@H]4[C@@]5(C)CC[C@H](O)C(C)(C)[C@@H]5CC[C@]43C)[C@@H]2C1` [Oleanolic acid, oleanolic acid], the IC50 in test [2] (read-out: IC50, μM (95% CL)) is 355 µM.

Consider `COc1cc(/C=C/C(=O)CC(=O)/C=C/c2ccc(O)c(OC)c2)ccc1O` [curcumin], for which, in test [3], the improved lifespan result is reported as “up to 75%”.

`C=C[C@@](C)(/C=C/c1ccc(O)cc1)CCC=C(C)C` [bakuchiol]: the IC50 in test [1] is 21.4 µM.

Regarding `O=C(O)/C=C/c1ccc(O)cc1` [p-coumaric acid], the IC50 in test [1] (phenylpropanoids) is 90 µM.

For `O=C(O[C@@H]1O[C@@H]2COC(=O)c3cc(O)c(O)c(O)c3-c3c(cc(O)c(O)c3O)C(=O)O[C@H]([C@H]1O)[C@@H]2O)c1cc(O)c(O)c(O)c1` [corilagin], in test [1] (tannins), the IC50 was 34 µM.

With `C/C=C/c1cc(=O)c2c(C)cc(OC)c([C@@H]3O[C@H](CO)[C@@H](O)[C@H](O)[C@H]3O)c2o1` [C-2′-decoumaroyl-aloeresin G], the IC50 in test [1] (benzopyranoids) was 20.5 µM.

For `COc1ccc(-c2cc(=O)c3c(O)cc(O)cc3o2)cc1` [Pure acacetin, acacetin], the IC50 in test [2] (read-out: IC50, μM (95% CL)) was found to be 81.2 µM. In addition, the “Slope ± SE” value in test [2] amounted to 0.4 ± 0.03.

With `COc1cc2c(cc1O)CC[n+]1cc3c4c(ccc3cc1-2)OCO4` [groenlandicine], the IC50 in test [1] (alkaloids) is 19.7 µM.

On to `COc1cc2c(cc1OC)-c1cc3ccc4c(c3c[n+]1CC2)OCO4` [epiberberi], for which the IC50 in test [1] (alkaloids) is 8.55 µM.
